# Assays:
# GSCs from xenograft 3691 = test: Intracranial implantation of pre-exposed GSCs (tumor initiation); format: in vivo, mice
# Protocol: All animal studies described were approved by the Cleveland Clinic Foundation Institutional Animal Care and Use Committee and conducted in accordance with the NIH Guide for the Care and Use of Laboratory Animals. For subcutaneous tumor studies, 1×10^5 freshly dissociated GBM cells from a xenograft originally derived from a primary GBM patient specimen (3691) were injected into the flanks of 10 six week old female athymic nu/nu mice. Tumors were allowed to reach approximately 0.12 cm^3, at which point animals were randomized into either vehicle control (DMSO) group or ispinesib (10 mg/kg given daily for 7 consecutive days by intraperitoneal injection) (Selleck Chemicals, Houston, Tex.). Tumors were monitored and measured daily using perpendicular diameter measurements for 7 days. Tumor volume was calculated using the ellipsoid formula π/6×larger diameter×(smaller diameter)^2. After the last treatment on Day 7, tumors were removed and weighed then processed for immunofluorescence (as described below). For intracranial implantation studies to evaluate tumor initiation by GSCs, the cells were isolated as described below and pre-exposed to drug or vehicle either in vitro or in vivo. […] Mice were monitored daily for neurological impairment at which time they were sacrificed and brains removed to evaluate for tumor development.
# [1] = test system: human brain microvascular endothelial cells; test: Endothelial tube formation on Matrigel; format: cell-based; conditions: 200 nM; 6-hour time course
# Protocol: Primary Human Brain Microvascular Endothelial Cells were purchased from Cell Systems (Kirkland, Wash.) and used at passages 3 through 6. Cells were maintained in EGM-2 MV media from Lonza (Walkersville, Md.) and stained with CellTracker™ Green CMFDA Dye from Invitrogen (Eugene, Oreg.) for fluorescent imaging. Tube formation assays were performed on Matrigel from Corning (Tewksbury, Mass.) in glass bottom 6-well plates from MatTek (Ashland, Mass.). Cells were plated at a density of 1.3×10^4 per cm^2 and imaged at the indicated times.
# GSCs = test: Limiting dilution assay and sphere formation (self-renewal); format: cell-based, human; conditions: pretreatment 18 hours with 3 nM; scored ten days later
# Protocol: GSCs were isolated from subcutaneous flank xenografts of patient-derived specimens by magnetic sorting as described above and allowed to recover overnight. The next day cells were exposed to vehicle or 3 nM ispinesib for 18 hours. Cells were then washed and triturated into a single cell suspension. Cell sorting was performed using a FACS Aria II Cell Sorter (BD Biosciences, Franklin Lakes, N.J., USA) to plate the cells into 96 well plates at a final cell number per well of 1 (38 wells/plate), 5 (24 wells/plate), 10, 20, or 50 (all at 12 wells/plate). Tumorsphere formation was evaluated 10 days after sorting and wells were scored positive or negative for the presence of at least one tumorsphere. The estimated stem cell frequency was calculated using extreme limiting dilution analysis. Only live cells were selected for using Live/Dead dye blue (Life Technologies).
# 3691 GBM cells = test: Subcutaneous flank tumor study, 3691 GBM xenograft; format: in vivo, mice
# Protocol: All animal studies described were approved by the Cleveland Clinic Foundation Institutional Animal Care and Use Committee and conducted in accordance with the NIH Guide for the Care and Use of Laboratory Animals. For subcutaneous tumor studies, 1×10^5 freshly dissociated GBM cells from a xenograft originally derived from a primary GBM patient specimen (3691) were injected into the flanks of 10 six week old female athymic nu/nu mice. Tumors were allowed to reach approximately 0.12 cm^3, at which point animals were randomized into either vehicle control (DMSO) group or ispinesib (10 mg/kg given daily for 7 consecutive days by intraperitoneal injection) (Selleck Chemicals, Houston, Tex.). Tumors were monitored and measured daily using perpendicular diameter measurements for 7 days. Tumor volume was calculated using the ellipsoid formula π/6×larger diameter×(smaller diameter)^2. After the last treatment on Day 7, tumors were removed and weighed then processed for immunofluorescence (as described below). For intracranial implantation studies to evaluate tumor initiation by GSCs, the cells were isolated as described below and pre-exposed to drug or vehicle either in vitro or in vivo. For in vitro pre-exposure studies, GSCs from xenograft 3691 were seeded at single cell density and treated with vehicle or ispinesib (3 nM) for 18 hours (300,000 cells per condition). Drug was then washed off and 2,500 or 25,000 viable GSCs were implanted into the right frontal lobes of male NSG mice (n=10 for vehicle, n=7 for ispinesib). For in vivo pre-exposure studies, subcutaneous tumors were established as described above. When tumors reached ˜0.5 cm^3, mice were randomized into a vehicle (DMSO) or ispinesib (10 mg/kg given daily for 3 consecutive days) group. 4 hours after the final treatment, GSCs were isolated as described below and 1,000 or 10,000 viable GSCs were then intracranially implanted into NSG mice (10 mice per group). Mice were monitored daily for neurological impairment at which time they were sacrificed and brains removed to evaluate for tumor development. […]
# [2] = test system: pCRMP2 (T514) in interphase GSCs; test: CRMP2 phosphorylation immunoblot; format: cell-based, human; conditions: 200 nM; 6-hour time course; GSCs
# Protocol: FIGS. 8(A-B) illustrate that Eg5 impacts microtubule growth through the CRMP-tubulin deposition pathway; (A) 08-387 GSCs enriched in interphase were exposed to vehicle (DMSO) or ispinesib (200 nM) and harvested for whole cell lysates every two hours over a 6 hour time course. Resulting lysates were probed for CRMP2 and pCRMP2 (T514); (B) Human brain microvascular endothelial cells (HuBrMVECs) were treated with vehicle (DMSO) or ispinesib (200 nM) and harvested for whole cell lysates every three hours over a 6 hour time course. Resulting lysates were probed for CRMP2 and pCRMP2 (T514); For all immunoblots, βactin served as a loading control. Molecular weight (MW) of resulting bands is given in kilodaltons (kD).
# Protein extracts were made using a 50 mM Tris pH 8.0, […] NaCl, 0.5% NP-40 lysis solution. Resulting lysates were ran on 10% SDS-PAGE gels and transferred to Immobilon-FL PVDF (Millipore Corp., Billerica, Mass.). The membranes were blocked with 5% (wt/vol) bovine serum albumin in PBS-Tween-20 (0.2% vol/vol) and probed with primary antibodies against Eg5 (mouse, 1:4000, BD Biosciences, San Jose, Calif.), Olig2 (rabbit, 1:1000, abcam, San Francisco, Calif.), GFAP (DAKO; 1:10,000, Carpinteria, Calif.), CRMP2 (mouse, 1:1000, abgent, San Diego, Calif.), pCRMP2(T514) (rabbit, 1:1000, Cell Signaling, Beverly, Mass.), or β-actin (mouse, 1:8000, Sigma-Aldrich, St. Louis, Mo.) as a loading control. Secondary antibodies (LI-COR) were incubated in TBST+0.02% SDS and visualized with the LI-COR Odyssey near infrared imaging system (Lincoln, NB).
structure (smiles),measurement,setting,value
"Cc1ccc(C(=O)N(CCCN)[C@@H](c2nc3cc(Cl)ccc3c(=O)n2Cc2ccccc2)C(C)C)cc1 [ispinesib, N-(3-amino-propyl)-n-[R-1-(3-benzyl-7-choloro-4-oxo-3,4-dihydroquinazolin-2-yl)-2-methyl-propyl]-4-methyl-benzamide methanesulfonate]",tumor initiation,"GSCs from xenograft 3691; GSCs from subcutaneous tumors treated in vivo 3 days with 10 mg/kg, 1,000 or 10,000 cells per mouse",reduced their tumor initiation phenotype
same,secondary tumor initiation,"GSCs from xenograft 3691; GSCs pretreated in vitro 18 hours with 3 nM, 2,500 or 25,000 cells per mouse",significant impairment of secondary tumor initiation
same,endothelial tube formation,[1],failed to properly organize into tubes
same,stem cell frequency (tumorsphere formation),GSCs,significantly compromised
same,tumor volume,"3691 GBM cells; 10 mg/kg daily intraperitoneal, 7 consecutive days",significantly reduced
same,tumor weight,"3691 GBM cells; 10 mg/kg daily intraperitoneal, 7 consecutive days, day 7",significantly reduced
same,Sox2 positive cells in end stage tumors,"3691 GBM cells; 10 mg/kg daily, 7 days",no Sox2 positive cells
same,phospho-CRMP2 (T514),[2],significant increase

# Reference: patent publication US20150352114A1, “MITOTIC KINESIN Eg5 INHIBITING ANTICANCER AGENTS” (THE CLEVELAND CLINIC FOUNDATION, priority 2014, published 2015)
